The conditions of data set [1]: literature reports; cited from earlier work.
The next data set has as its target neuraminidase (Influenza A virus, UniProt P03468).
Data set [2] in a line: Water solubility of salt form. It is filed as physicochemical. Conditions: HCl salt form (dissolved in 3N HCl and lyophilized). The procedure:
Amino ethyl ester 262: Triphenyl phosphine (342 mg, 1.30 mmol) was added in one portion to a solution of 261 ([…], 0.80 mmol) in THF (17 mL) and water (1.6 mL). The reaction was then heated at 50° C. for 10 h, cooled and concentrated in vacuo to give a pale white solid. Purification of the crude solid by flash chromatography on silica gel (50% methanol in ethyl acetate) gave 242 mg (96%) of the amino ethyl ester 262 as a pale solid. The amino ethyl ester is dissolved in 3N HCl and lyophilized to give the corresponding water soluble HCl salt form. ^1H NMR (D2O, 300 MHz): δ 6.84 (s, 1H); 4.36-4.30 (br m, 1H); 4.24 (q, 2H, J=7.2 Hz); 4.05 (dd, 1H, J=9.0, 11.7 Hz); 3.63-3.50 (m, 2H); 2.95 (dd, 1H, J=5.7, 17.1 Hz); 2.57-2.45 (m, 1H); 1.60-1.39 (m, 4H); 1.27 (t, 3H, J=7.2 Hz); 0.89-0.80 (m, 6H).

Toxicity, IC50 and Water solubility data for four compounds are collected here from patent US20050176758A1, “NOVEL COMPOUNDS AND METHODS FOR SYNTHESIS AND THERAPY” (priority 1995, published 2005).

Chain of neuraminidase (P03468 whole entry): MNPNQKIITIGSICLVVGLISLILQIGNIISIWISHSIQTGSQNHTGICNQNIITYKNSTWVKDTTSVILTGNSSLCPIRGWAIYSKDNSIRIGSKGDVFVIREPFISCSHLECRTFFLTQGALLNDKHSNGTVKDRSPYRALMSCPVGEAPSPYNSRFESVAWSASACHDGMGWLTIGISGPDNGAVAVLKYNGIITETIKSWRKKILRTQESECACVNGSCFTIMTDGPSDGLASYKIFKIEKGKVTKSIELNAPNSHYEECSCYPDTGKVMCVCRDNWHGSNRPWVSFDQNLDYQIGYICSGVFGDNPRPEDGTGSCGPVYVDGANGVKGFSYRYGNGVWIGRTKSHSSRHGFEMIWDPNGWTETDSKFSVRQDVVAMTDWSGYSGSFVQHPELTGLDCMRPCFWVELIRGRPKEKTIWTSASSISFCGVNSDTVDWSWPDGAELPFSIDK
Description for neuraminidase: Compositions of the invention are screened for inhibitory activity against neuraminidase by any of the conventional techniques for evaluating enzyme activity.
Enzyme Inhibition: Using the methods of screening in vitro activity described above, the following activities were observed (+10-100 μm, ++1-10 μm, +++<1.0 μm):

Take `CC(=O)N[C@H]1[C@H]([C@H](O)[C@H](O)CO)OC(C(=O)O)=C[C@@H]1N=C(N)N` [GG167, 4-guanidino-2,4-dideoxy-2,3-dehydro-N-acetylneuraminic acid]: the Toxicity entry in data set [1] is “nontoxic”.

`CC(=O)N[C@@H]1[C@@H](N)CC(C(=O)O)=C[C@H]1OCC(O)CO` (stereo partly shown) [compound 8]: the IC50 at neuraminidase was in the range of 1000 to 10000 nM. On the same count and under the same terms, next, `CC(=O)NC1C(O)C=C(C(=O)O)CC1NC(=N)N` (stereo not shown) [compound 94]: under 1000 nM. As for `CCOC(=O)C1=CC(OC(CC)CC)C(NC(C)=O)C(N)C1` (stereo not shown) [compound 262], in data set [2], the Water solubility result is on record as “water soluble”.

One may read the IC50 as the point on the concentration scale where inhibition reaches its midpoint. Low readings indicate greater potency in that assay, high ones weaker potency in that assay.
